From patent US10011552B2, “Process for preparation of herbicidal carboxylic acid salts” (ROTAM AGROCHEM INTERNATIONAL COMPANY LIMITED, priority 2013, dated 2018)

experiment: pH value of the dried carboxylic acid salt in water; type: physicochemical; conditions: dried salt cake dissolved in water

SMILES	pH value in water
COc1c(Cl)ccc(Cl)c1C(=O)[O-].[Na+] [dicamba-sodium]	7
O=C(O)c1nc(Cl)ccc1Cl.OCCNCCO [clopyralid-bis(2-hydroxyethyl)ammonium]	8
Cc1cc(Cl)ccc1OCC(=O)[O-].[K+] [MCPA-potassium]	9
O=C([O-])c1c(Cl)ccc2cc(Cl)cnc12.[Na+] [quinclorac-sodium]	10
